Experimental findings from patent publication US20260231939A1, “ARTHROPOD CONTROL COMPOSITIONS” (Firmenich SA, priority 2022, published 2026) are described below.

One assay relates to Ae. aegypti. Nature of the assay: Arm-in-cage test on human volunteers. Type of assay: in vivo, Aedes aegypti. To be noted: for Arm-in-cage repellence: 20% in ethanol. How it is done:
(§1) The Arm in the box method was adapted from the WHO Guidelines for efficacy testing of mosquito repellents for human skin (WHO/CDS/NTD/WHOPES/2009.4) and/or based on EU biocide testing guidelines (Guidance on the Biocidal Products Regulation. Vol. II Efficacy—Assessment and Evaluation (Parts B+C), v. 4.0. December 2021). The readiness of 200 hungry female mosquitoes Ae. aegypti or 50 An. gambiae to probe is assessed by inserting the untreated arm of human volunteers into the cage (40×40×40 cm) for 30 seconds (negative control) in order to determine probing activity. Then, the product is applied onto the skin of the forearm of the human volunteer (1 mL per 600 cm^2) and after 5 minutes (Ae. aegypti) or 30 minutes (An. gambiae), this arm is inserted into the cage and exposed for 3 minutes. The assay take place in temperature (27±2° C.) and humidity (80±10% RH) regulated room on three different human volunteers.

Another assay concerns Aedes aegypti. Briefly: Warm Body assay, mosquito landings on the baited warm body. Type of assay: in vivo. To be noted: for pest or weed control at 16 µg/mL / pest or weed control at 400 µg/mL / pest or weed control at 10000 µg/mL: Aedes aegypti, read-out: Percentage of repellence of mosquitoes landing on the warm body. How it is done: The controlling effect according to the present invention was assessed using an adapted Warm Body assay as defined in Kröber T, Kessler S, Frei J, Bourquin M, Guerin P M. 2010. J Am Mosq Control Assoc. 26:381-386. In this in-vitro assay the number of mosquito landing on a warm body, simulating an attractive host treated with the tested stimuli, was measured in order to assess the repellence effect.
The published protocol has been adapted as the switch from Anopheles gambiae to Ae. aegypti led to a decrease of mosquitoes placed in the tested cage due to the size difference (i.e. 30 mosquitoes instead of 50) and to an increase of lighting since Ae. aegypti is a diurnal mosquitoes (i.e. 150 lux instead of 4 lux).
(§2) On the sandblasted glass Petri dish covering the warm body (28.3 cm^2), 100 μL of the compounds diluted at different concentrations in ethanol was applied. The number of mosquito landing on the warm body was counted for each stimulus. Number of landings on pure ethanol (solvent) control treatment was used to normalize the data and calculate the percentage of repellence.

The next assay concerns An. gambiae. Briefly: Arm-in-cage test on human volunteers. Type of assay: in vivo, Anopheles gambiae. The procedure: as §1
Another assay deals with Ixodes ricinus. Briefly: Warm Plate Assay for ticks.
A further assay has as its system Anopheles gambiae. Nature of the assay: Warm Body assay, mosquito landings on the baited warm body. Format: in vivo. How it is done: Anopheles gambiae is also a model organism as it is anthropophilic and transmits malaria.
The controlling effect according to the present invention was assessed using an adapted Warm Body assay as defined in Kröber T, Kessler S, Frei J, Bourquin M, Guerin P M. 2010. J Am Mosq Control Assoc. 26:381-386. In this in-vitro assay the number of mosquito landing on a warm body, simulating an attractive host treated with the tested stimuli, was measured in order to assess the repellence effect. […]
as §2

[1] abbreviates: γ-lactones, 0.016 mg/mL in ethanol.
Setting [2] is: γ-lactones, 0.4 mg/mL in ethanol.
Where [3] appears, read: γ-lactones, 10 mg/mL in ethanol.

Each structure is given as a SMILES string. Read-outs that look alike come from different tables or passages of the source.

In the case of `CC1CCC2C(C1)OC(=O)C2C` (centres unmarked) [3,6-dimethyl-3a,4,5,6,7,7a-hexahydro-3H-1-benzofuran-2-one], the “mosquitoes repelled for at least 1 h” value with Ae. aegypti (at 20%) and in the assay on An. gambiae (at 20%) was > 95% throughout. The “Arm-in-cage repellence, mean of three volunteers” value is recorded as 100% ± in the assay on Ae. aegypti (at 20%, 30 min); 99.93% ± in the assay on Ae. aegypti (at 20%, 1 h); 92.21% ± with Ae. aegypti (at 20%, 2 h); 86.52% ± with Ae. aegypti (at 20%, 3 h); 66.02% ± in the assay on Ae. aegypti (at 20%, 4 h); 100% ± with An. gambiae (at 20%, 30 min). Further, the “Arm-in-cage repellence, mean of three volunteers” value in the assay with An. gambiae (at 20%, 1 h) was 93.7% ±; in the assay on An. gambiae (at 20%, 2 h), 67.05% ±. Also, in the assay on Aedes aegypti (more complex lactones (types A, B, C), 0.016 mg/mL), the pest or weed control at 16 µg/mL came to 0%. Also, the pest or weed control at 400 µg/mL in the assay with Aedes aegypti (more complex lactones (types A, B, C), 0.4 mg/mL) is 90%. In the assay on Aedes aegypti (more complex lactones (types A, B, C), 10 mg/mL), the pest or weed control at 10000 µg/mL stood at 98%.

As to `CCC=CCCC1CCC(=O)O1` (centres unmarked) [5-hex-3-enyloxolan-2-one], the Arm-in-cage repellence with Ae. aegypti (5 min post application) is reported as 98.5% ±; in the assay on Ae. aegypti (1 h post application), 97.0% ±; in the assay with Ae. aegypti (2 h post application) it was 93.0% ±; in the assay on Ae. aegypti (3 h post application) it was 88.3% ±; in the assay with Ae. aegypti (4 h post application), 79.5% ±; in the assay with An. gambiae (20% in ethanol, 30 min post application), 100% ±. The Arm-in-cage repellence is reported as 100% ± with An. gambiae (20% in ethanol, 1 h post application); 100% ± in the assay on An. gambiae (20% in ethanol, 2 h post application); 100% ± with An. gambiae (20% in ethanol, 3 h post application); 100% ± in the assay with An. gambiae (20% in ethanol, 4 h post application); 97.85% ± in the assay on An. gambiae (20% in ethanol, 5 h post application); 80.07% ± with An. gambiae (20% in ethanol, 6 h post application). Besides, the “time during which mosquito protection is >90%” value in the assay with Ae. aegypti (20% solution in ethanol) was 2 h. In addition, the “Percentage of repellence of ticks on the warm plate” value is recorded as 17% in the assay on Ixodes ricinus (0.40 mg/mL) and 100% in the assay with Ixodes ricinus (10 mg/mL). Besides, the “Percentage of repellence of mosquitoes landing on the warm body” value (from here on “Percentage of repellence … on the warm body”) in the assay on Anopheles gambiae (0.08 mg/mL) was determined as 12%; with Anopheles gambiae (0.178 mg/mL), 38%; in the assay with Anopheles gambiae (0.267 mg/mL) it was 95%; with Anopheles gambiae (0.598 mg/mL) it was 93%; in the assay on Anopheles gambiae (0.89 mg/mL), 100%; with Anopheles gambiae (2 mg/mL), 100%. Also, the “Percentage of repellence … on the warm body” value in the assay on Anopheles gambiae (4.47 mg/mL) and in the assay with Anopheles gambiae (10 mg/mL) was 100% throughout. Also, in the assay on Aedes aegypti (setting [1]), the pest or weed control at 16 µg/mL was 0%. In addition, the pest or weed control at 400 µg/mL with Aedes aegypti (setting [2]) was 81%. For the same molecule, the pest or weed control at 10000 µg/mL in the assay with Aedes aegypti (setting [3]) stood at 95%. Also, the “repellence efficacy compared with the saturated counterpart” value in the assay with Aedes aegypti (Warm Body assay, paired t-test where given) was “significantly higher”. The “time during which protection is 100%, i.e. no mosquito landing” value with An. gambiae (20% in ethanol) is given as 4 h. Moreover, the “time during which mosquito protection / repellence is >90%” value in the assay on An. gambiae (20% solution in ethanol) came to 5 h.

Take `C=CCCCCC1CCC(=O)O1` (centres unmarked) [5-hex-5-enyloxolan-2-one]: the “Percentage of repellence … on the warm body” value stood at 65% in the assay on Anopheles gambiae (0.08 mg/mL); 72% in the assay on Anopheles gambiae (0.178 mg/mL); 73% in the assay on Anopheles gambiae (0.267 mg/mL); 88% in the assay on Anopheles gambiae (0.598 mg/mL); 98% in the assay with Anopheles gambiae (0.89 mg/mL); 100% with Anopheles gambiae (2 mg/mL). The “Percentage of repellence … on the warm body” value with Anopheles gambiae (4.47 mg/mL) and in the assay with Anopheles gambiae (10 mg/mL) was 100% throughout. Also, the pest or weed control at 16 µg/mL in the assay on Aedes aegypti (setting [1]) was found to be 14%. In the assay on Aedes aegypti (setting [2]), the pest or weed control at 400 µg/mL amounted to 89%. The pest or weed control at 10000 µg/mL with Aedes aegypti (setting [3]) was determined as 100%.

In the case of `CCCCCCC1CCCC(=O)O1` (centres unmarked) [6-hexyloxan-2-one], the pest or weed control at 16 µg/mL in the assay on Aedes aegypti (δ-lactones, 0.016 mg/mL) came to 0%. Also, the pest or weed control at 400 µg/mL in the assay on Aedes aegypti (δ-lactones, 0.4 mg/mL) came out at 76%. Further, the pest or weed control at 10000 µg/mL in the assay with Aedes aegypti (δ-lactones, 10 mg/mL) came to 91%.

In the case of `CCCCCC1CCCC(=O)O1` (centres unmarked) [6-pentyloxan-2-one], the pest or weed control at 16 µg/mL with Aedes aegypti (δ-lactones, 0.016 mg/mL) stood at 0%. In the assay with Aedes aegypti (δ-lactones, 0.4 mg/mL), the pest or weed control at 400 µg/mL is 91%. For the same molecule, the pest or weed control at 10000 µg/mL in the assay on Aedes aegypti (δ-lactones, 10 mg/mL) was 98%.

As to `C=CCCC1CCCCC(=O)O1` (centres unmarked) [7-but-3-enyloxepan-2-one], the pest or weed control at 16 µg/mL with Aedes aegypti (β- and ε-lactones, 0.016 mg/mL) was 43%. For the same molecule, the pest or weed control at 400 µg/mL in the assay with Aedes aegypti (β- and ε-lactones, 0.4 mg/mL) was determined as 75%. The pest or weed control at 10000 µg/mL with Aedes aegypti (β- and ε-lactones, 10 mg/mL) was 99%.

On to `O=C1CCCCC(C2CCCCC2)O1` (centres unmarked) [7-cyclohexyloxepan-2-one], for which, in the assay with Aedes aegypti (β- and ε-lactones, 0.016 mg/mL), the pest or weed control at 16 µg/mL is 0%. For the same molecule, the pest or weed control at 400 µg/mL in the assay with Aedes aegypti (β- and ε-lactones, 0.4 mg/mL) came to 10%. Also, the pest or weed control at 10000 µg/mL in the assay with Aedes aegypti (β- and ε-lactones, 10 mg/mL) was found to be 26%.

Consider `C=CCCCC1CCCCC(=O)O1` (centres unmarked) [7-pent-4-enyloxepan-2-one], for which, in the assay on Aedes aegypti (β- and ε-lactones, 0.4 mg/mL), the pest or weed control at 400 µg/mL came out at 95% and the “Percentage of repellence … on the warm body” value is on record as 95%. The pest or weed control at 10000 µg/mL in the assay on Aedes aegypti (β- and ε-lactones, 10 mg/mL) came out at 100%.

Take `CCCCCC1CCCCC(=O)O1` (centres unmarked) [7-pentyloxepan-2-one]: in the assay with Aedes aegypti (β- and ε-lactones, 0.4 mg/mL), the pest or weed control at 400 µg/mL was 52% and the “Percentage of repellence … on the warm body” value was 52%. For the same molecule, the pest or weed control at 10000 µg/mL with Aedes aegypti (β- and ε-lactones, 10 mg/mL) worked out at 98%.

For the molecule `CC(C)(C)C1CCCCC(=O)O1` (centres unmarked) [7-tert-butyloxepan-2-one], the pest or weed control at 16 µg/mL in the assay on Aedes aegypti (β- and ε-lactones, 0.016 mg/mL) is 0%. In the assay with Aedes aegypti (β- and ε-lactones, 0.4 mg/mL), the pest or weed control at 400 µg/mL came to 0%. In addition, in the assay with Aedes aegypti (β- and ε-lactones, 10 mg/mL), the pest or weed control at 10000 µg/mL worked out at 66%.

For the molecule `CCC=CC[C@H]1CCCC(=O)O1` [(6R)-6-pent-2-enyloxan-2-one], the pest or weed control at 16 µg/mL with Aedes aegypti (δ-lactones, 0.016 mg/mL) worked out at 78%. Also, in the assay on Aedes aegypti (δ-lactones, 0.4 mg/mL), the pest or weed control at 400 µg/mL is 100%. For the same molecule, the pest or weed control at 10000 µg/mL with Aedes aegypti (δ-lactones, 10 mg/mL) was 98%.

On to `CCC=CC[C@@H]1CCCC(=O)O1` [(6S)-6-pent-2-enyloxan-2-one], for which the pest or weed control at 16 µg/mL in the assay on Aedes aegypti (δ-lactones, 0.016 mg/mL) was 73%. In the assay with Aedes aegypti (δ-lactones, 0.4 mg/mL), the pest or weed control at 400 µg/mL worked out at 96%. Also, the pest or weed control at 10000 µg/mL in the assay on Aedes aegypti (δ-lactones, 10 mg/mL) was 96%.

For the molecule `C=C/C=C/C1C(=O)OC1CCCCC` (centres unmarked) [(E)-3-buta-1,3-dienyl-4-pentyloxetan-2-one], the pest or weed control at 16 µg/mL with Aedes aegypti (β- and ε-lactones, 0.016 mg/mL) was determined as 71%. In addition, the pest or weed control at 400 µg/mL in the assay with Aedes aegypti (β- and ε-lactones, 0.4 mg/mL) is 82%. In addition, the pest or weed control at 10000 µg/mL with Aedes aegypti (β- and ε-lactones, 10 mg/mL) was determined as 100%.

For the molecule `C=C/C=C\C1C(=O)OC1CCCCC` (centres unmarked) [(Z)-3-buta-1,3-dienyl-4-pentyloxetan-2-one], the pest or weed control at 16 µg/mL in the assay with Aedes aegypti (β- and ε-lactones, 0.016 mg/mL) amounted to 64%. The pest or weed control at 400 µg/mL in the assay with Aedes aegypti (β- and ε-lactones, 0.4 mg/mL) was determined as 87%. In the assay with Aedes aegypti (β- and ε-lactones, 10 mg/mL), the pest or weed control at 10000 µg/mL is 95%.
